24 compounds from patent publication US12559474B2, “Triazine derivatives having virus replication inhibitory activity and pharmaceutical composition comprising the same” (priority 2021, dated 2026) can be followed below.

SMILES strings stand for the structures. Like-named read-outs stand apart in the source and are kept apart here.

Broadly, the EC50 is the concentration giving half of the maximal effect. A low value points to an effect from little substance. Usually IC50 stands for the point on the concentration scale where inhibition reaches its midpoint.

One assay deals with SARS-CoV-2. The assay is described as follows: microbe, parasite or virus in culture. The following applies: Severe acute respiratory syndrome coronavirus 2, VeroE6/TMPRSS2, 72 h, 50% SARS-CoV-2 infected cell death inhibitory concentration, VeroE6/TMPRSS2 cells, 3 days culture. It is filed as cell-based.
Another assay has as its target SARS-CoV-2 3CL protease (Severe acute respiratory syndrome coronavirus 2, UniProt P0DTD1). The assay is described as follows: biochemical. The following applies: 50% SARS-CoV-2 3CL protease inhibitory concentration, read-out: IC50.

On to `Cc1cncc(-n2c(=O)nc(Nc3cc(-c4ccc[nH]c4=O)sc3C)n(Cc3cc(F)c(F)c(F)c3)c2=O)c1` [II-0289], for which the EC50 in the assay with SARS-CoV-2 (CellTiter-Glo 2.0) is 16000 nM. For the same compound, the concentration for half-maximal inhibition (IC50) on SARS-CoV-2 3CL protease (RapidFire MS) turned out to be 240 nM.

In turn, `Cc1cncc(-n2c(=O)nc(Nc3cc4sc(NCC(F)F)nc4cc3F)n(Cc3ccc(F)c(C#N)c3)c2=O)c1` [II-0424] showed a half-maximal effective concentration (EC50) with SARS-CoV-2 (class symbols) of 1000 to 10000 nM. Further, the IC50 at SARS-CoV-2 3CL protease (given as class symbols) is < 100 nM.

In the assay on SARS-CoV-2 (class symbols), `C[C@H](O)Cn1cc2cc(Nc3nc(=O)n(Cc4ccc[nH]c4=O)c(=O)n3Cc3cc(F)c(F)c(F)c3)c(Cl)cc2n1` [Compound I-0424] showed an EC50 of 1000 to 10000 nM. Further, the concentration for half-maximal inhibition (IC50) on SARS-CoV-2 3CL protease (given as class symbols) is < 100 nM.

Take `Cc1cncc(-n2c(=O)nc(Nc3cc4sc(NCC(F)F)nc4cc3Cl)n(Cc3cc(F)c(F)c(C#N)c3)c2=O)c1` [II-0498]: the EC50 in the assay on SARS-CoV-2 (class symbols) is 1000 to 10000 nM. Besides, the IC50 at SARS-CoV-2 3CL protease (given as class symbols) was < 100 nM.

Compound `Cn1cc2cc(Nc3nc(=O)n(Cc4cc(Cl)ccn4)c(=O)n3Cc3cc(F)c(F)cc3F)c(Cl)cc2n1` [II-0255] showed an EC50 in the assay with SARS-CoV-2 (CellTiter-Glo 2.0) of 1520 nM. The IC50 at SARS-CoV-2 3CL protease (RapidFire MS) was 100 nM.

Take `O=c1[nH]cccc1Cn1c(=O)nc(Nc2cc3cn(CC(F)F)nc3cc2Cl)n(Cc2cc(F)c(F)c(F)c2)c1=O` [Compound I-0284]: in the assay with SARS-CoV-2 (class symbols), the EC50 was < 1000 nM. In addition, on SARS-CoV-2 3CL protease (given as class symbols), the concentration for half-maximal inhibition (IC50) was < 100 nM.

As for `Cc1cncc(-n2c(=O)nc(Nc3cc4cn(CCN5CCOCC5)nc4cc3Cl)n(Cc3cc(F)c(F)c(F)c3)c2=O)c1` [II-0351], the half-maximal effective concentration (EC50) in the assay with SARS-CoV-2 (class symbols) is < 1000 nM. In addition, on SARS-CoV-2 3CL protease (given as class symbols), the half-maximal inhibitory concentration (IC50) is < 100 nM.

Turning to `Cc1cncc(-n2c(=O)nc(Nc3cc4cn(C)nc4cc3Cl)n(Cc3ccc(F)c(C#N)c3)c2=O)c1F` [II-0265], in the assay on SARS-CoV-2 (class symbols), the EC50 is < 1000 nM. Further, at SARS-CoV-2 3CL protease (given as class symbols), the IC50 was < 100 nM.

Consider `Cc1cncc(-n2c(=O)nc(Nc3cc4cn(C)nc4cc3Cl)n(Cc3cc(C#N)c(F)cc3C(F)F)c2=O)c1` [II-0583], for which the concentration giving a half-maximal response (EC50) in the assay with SARS-CoV-2 (class symbols) is < 1000 nM. Besides, the half-inhibitory concentration (IC50) on SARS-CoV-2 3CL protease (given as class symbols) is < 100 nM.

As for `Cn1cnc(Cn2c(=O)cc(Nc3cc4cn(C(F)F)nc4cc3Cl)n(Cc3cc(F)c(F)c(F)c3)c2=O)n1` [II-0431], the EC50 with SARS-CoV-2 (class symbols) is < 1000 nM. For the same compound, at SARS-CoV-2 3CL protease (given as class symbols), the IC50 was < 100 nM.

The compound `COc1ccc(Nc2nc(=O)n(Cc3ccc[nH]c3=O)c(=O)n2Cc2cc(F)c(F)cc2F)cc1` [Compound I-0320] had an EC50 with SARS-CoV-2 (class symbols) of 1000 to 10000 nM. The IC50 at SARS-CoV-2 3CL protease (given as class symbols) is < 100 nM.

As to `Cc1nc2cc(Cl)c(Nc3nc(=O)n(Cc4ncn(C)n4)c(=O)n3Cc3cc(F)c(F)c(F)c3)cc2n1C` [Compound I-0422], the EC50 with SARS-CoV-2 (class symbols) is 1000 to 10000 nM. Besides, on SARS-CoV-2 3CL protease (given as class symbols), the IC50 was < 100 nM.

Consider `Cc1cncc(-n2c(=O)nc(Nc3cc4cn(C)nc4cc3Cl)n(Cc3cc(Cl)c(F)cc3C)c2=O)c1` [II-0043], for which the midpoint of the response in the assay on SARS-CoV-2 (CellTiter-Glo 2.0), the EC50, lay at 232 nM. Moreover, the IC50 on SARS-CoV-2 3CL protease (RapidFire MS) was 5.8 nM.

For `C[C@H](O)Cn1cc2cc(Nc3nc(=O)n(Cc4cc(Cl)c[nH]c4=O)c(=O)n3Cc3cc(F)c(F)c(F)c3)c(Cl)cc2n1` [Compound I-0402], in the assay on SARS-CoV-2 (class symbols), the EC50 is 1000 to 10000 nM. The IC50 at SARS-CoV-2 3CL protease (given as class symbols) is < 100 nM.

With `CCn1cc2cc(Nc3nc(=O)n(-c4cncc(Cl)c4)c(=O)n3Cc3ccc(F)c(C#N)c3)ccc2n1` [II-0566], the EC50 with SARS-CoV-2 (CellTiter-Glo 2.0) came out at 898 nM. Besides, the IC50 on SARS-CoV-2 3CL protease (RapidFire MS) was determined as 27 nM.

`Cc1cncc(-n2c(=O)nc(Nc3ccc4nn(C(F)F)cc4c3)n(Cc3ccc(F)c(C#N)c3)c2=O)c1` [II-0320]: the EC50 in the assay on SARS-CoV-2 (class symbols) was < 1000 nM. In addition, the IC50 at SARS-CoV-2 3CL protease (given as class symbols) was < 100 nM.

With `COc1ccc(Nc2nc(=O)n(-c3cncc(C)c3)c(=O)n2-c2cccc(Cl)c2)cc1` [II-0492], the EC50 with SARS-CoV-2 (class symbols) is < 1000 nM. For the same compound, the IC50 on SARS-CoV-2 3CL protease (RapidFire MS) is 1000 nM.

`COc1ccc(Nc2nc(=O)n(Cc3ncn(C(F)F)n3)c(=O)n2Cc2cc(F)c(F)c(F)c2)cc1` [II-0257] gave an EC50 in the assay on SARS-CoV-2 (CellTiter-Glo 2.0) of 9140 nM. The IC50 at SARS-CoV-2 3CL protease (RapidFire MS) was determined as 970 nM.

Consider `Cc1cncc(-n2c(=O)nc(Nc3cc4cn(CC(F)F)nc4cc3Cl)n(Cc3cc(Cl)c(F)cn3)c2=O)c1` [II-0586], for which the EC50 with SARS-CoV-2 (class symbols) was < 1000 nM. The IC50 at SARS-CoV-2 3CL protease (given as class symbols) was < 100 nM.

On to `Cc1cncc(-n2c(=O)nc(Nc3ccc4nn(CC(F)(F)F)cc4c3)n(Cc3cc(C#N)ccc3F)c2=O)c1` [II-0312], for which the EC50 with SARS-CoV-2 (class symbols) was < 1000 nM. On SARS-CoV-2 3CL protease (given as class symbols), the IC50 was < 100 nM.

As to `Cc1cc2c(cc1Nc1nc(=O)n(-c3cncc4ccccc34)c(=O)n1Cc1ccc(F)c(C#N)c1)CCO2` [II-0160], the EC50 in the assay with SARS-CoV-2 (class symbols) was < 1000 nM. Besides, the IC50 on SARS-CoV-2 3CL protease (given as class symbols) was < 100 nM.

In the case of `Cn1cnc(Cn2c(=O)nc(Nc3cc4cn(C5CCOCC5)nc4cc3Cl)n(Cc3cc(Cl)c(F)cc3F)c2=O)n1` [II-0098], in the assay with SARS-CoV-2 (class symbols), the EC50 was in the range of 1000 to 10000 nM. The IC50 at SARS-CoV-2 3CL protease (given as class symbols) is < 100 nM.

Consider `CCn1cc2cc(Nc3nc(=O)n(-c4cncc(C)c4)c(=O)n3Cc3ccc(F)c(C#N)c3)ccc2n1` [II-0010], for which the EC50 in the assay with SARS-CoV-2 (CellTiter-Glo 2.0) is 940 nM. The IC50 at SARS-CoV-2 3CL protease (RapidFire MS) turned out to be 19 nM.

With `Cn1cnc(Cn2c(=O)nc(Nc3cc4c(cc3Cl)OCC4)n(Cc3cc(F)c(F)c(Cl)c3)c2=O)n1` [II-0046], in the assay on SARS-CoV-2 (class symbols), the EC50 is < 1000 nM. In addition, the IC50 at SARS-CoV-2 3CL protease (given as class symbols) was < 100 nM.
